Results on five compounds are retold here after patent US5932742A, “Arylsulfonylimidazolone derivatives as an antitumor agent” (priority 1996, dated 1999).

For data set [1], the system named is Colo205 (ATCC CCL 222): human colon adenocarcinoma. Kind of data set: In vitro antitumor activity, MTT assay, Colo205. The data set is classed as cell-based. As to conditions: for IC50: Homo sapiens. The method, boiled down:
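Colo205 cells in RPMI 1640/10% FBS were exposed 48 h at 37 °C to 5-fold serial dilutions, final 20 to 0.00128 µg/ml, DMSO below 0.5%. MTT added for 4 h, formazan dissolved in DMSO, A540 read versus medium control; IC50 by linear regression.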

Data set [2] relates to KB (ATCC CCL 17): human epidermoid carcinoma. Kind of data set: In vitro antitumor activity, MTT assay, KB. The data set is classed as cell-based. As to conditions: Homo sapiens; Table 1; MTT, 48 hrs; read-out: IC50 (KB). As to the method:
In vitro antitumor activity against human tumor cell lines
In vitro antitumor activity of the compounds according to the present invention was determined by MTT assay method against the following human tumor cell lines:
KB (ATCC CCL 17): human epidermoid carcinoma
In this test, the known antineoplastic compounds, Doxorubicin and Sulofenur, were used as the comparative agents.
Each of the tumor cells was cultured in RPMI 1640 media containing 10% fetal bovine serum, 100 IU/ml penicillin and 100 μg/ml streptomycin, and then periodically subcultured once or twice per week in trypsin-EDTA solution containing 0.05% trypsin and 0.53mM EDTA.4Na. The human tumor cell line thus obtained (10,000cells/100 μl) was plated on 96-well microplate and then cultured for 24 hrs at 37° C. in a 5% CO2 incubator. Test compound was dissolved in DMSO, sterilized with 0.22 μm PVDF filter, and then serially 5-fold diluted from 40 μg/ml to 0.00256μg/ml. 100 μl of the sample solution thus prepared and RPMI 1640 medium only (control group) were added to 96-well microplate containing the human tumor cell, respectively. The final concentration of the test compound was in the range from 20 μg/ml to 0.00128 μg/ml and the concentration of DMSO was below 0.5%. The cells were cultured for 48 hrs at 37° C. in a 5% CO2 incubator. MTT(3-(4,5-Dimethylthiazole-2-yl)-e,5-diphenyltetrazoliumbromide) was dissolved in physiological saline in a concentration of 2 mg/ml and the resulting solution was filtered through 0.22 μm PTFE filter. 25 μl of MTT solution thus prepared was added to each well of 96-well microplate and incubated for additional 4 hrs at 37° C. in a 5% CO2 incubator. Then, the content of microplate was centrifuged at 1000 rpm for 10 min, and supernatant was removed by flicking. The formazan formed from MTT by mitochondrial succinate dehydrogenase was dissolved in 100 μl of DMSO. The absorbance of each well was measured at 540nm by micro ELISA reader and the cytotoxicity was calculated by dividing the absorbance of test group by the absorbance of control group. After the calculated cytotoxicity (%) was plotted, the concentration of 50% tumor growth inhibition concentration (IC50) was estimated by Linear-Regression method.

Data set [3] deals with A549 (ATCC CCL 185): human lung carcinoma. The data set can be described thus: In vitro antitumor activity, MTT assay, A549. As to conditions: for IC50: Homo sapiens, A549, 48 h. The data set is classed as cell-based. The method, boiled down:
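A549 cells in RPMI 1640 with 10% FBS, 10,000 cells/well, pre-cultured 24 hrs, then exposed 48 hrs at 37° C to compound at 20 to 0.00128 μg/ml final (5-fold steps, DMSO below 0.5%). MTT added for 4 hrs, formazan dissolved in DMSO and read at 540nm; IC50 by linear regression of % of control.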

The test system of data set [4] is SK-OV-3 (ATCC HTB 77): human ovarian adenocarcinoma. Kind of data set: In vitro antitumor activity, MTT assay, SK-OV-3. The data set is classed as cell-based. As to conditions: for IC50: Homo sapiens. The method, boiled down: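 Cells seeded at 10,000 per well, grown 24 h, then exposed 48 h at 37 °C to compound at final 20 to 0.00128 μg/ml (5-fold dilutions, DMSO below 0.5%). MTT added for 4 h, formazan dissolved in DMSO, absorbance read at 540 nm; IC50 estimated by linear regression.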

Data set [5] has as its system P388 murine leukemia cells. Kind of data set: In vivo antitumor activity against P388 murine leukemia cell. Details: species or system BDF1 mouse. As to conditions: once per 2 days for 10 days, median survival time. The method, then: In vivo antitumor activity against P388 murine leukemia cell
P388 murine leukemia cells were injected into BDF1 mouse intraperitoneally and grown in the peritoneal cavity. The P388 cells were periodically exudated and reinjected intraperitoneally into mouse for subculture.
The cells were exudated, washed, resuspended in saline (2×10^7 cells/ml), and then injected intraperitoneally again into BDF1 mouse (2×10^6 cells/0.1 ml).
Test compound dissolved in appropriate vehicle was administered intraperitonealy or orally into the mouse which was implanted with P388 murine leukemia tumor cells in the frequency of once per 2 days for 10 days. The vehicle was administered into the mouse of control group. Then, the number of live animals were daily checked to estimate the median survival time (MST).
T/C ratio(%) of each test compound was calculated according to the following formula, and the test results are shown in Table 6.
T/C(%)=(MST of test group.div.MST of control group)×100

Data set [6] concerns K562 (ATCC CCL 243): human chronic myelogenous leukemia. Kind of data set: In vitro antitumor activity, MTT assay, K562. Format: cell-based. As to conditions: for IC50: Homo sapiens, K562, 48 h. The method, boiled down: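 K562 cells (10,000/well) pre-cultured 24 hrs, then exposed 48 hrs at 37° C. to serially 5-fold diluted compound, final 20 μg/ml to 0.00128 μg/ml, DMSO below 0.5%. MTT added 4 hrs; formazan dissolved in DMSO, A540 read. Cytotoxicity as test/control absorbance; IC50 by linear regression.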

The test system of data set [7] is Colon 26 murine colon cancer cell. Kind of data set: In vivo antitumor activity against Colon 26 murine colon cancer cell. Also noted: species or system Balb/C mouse. The following applies: 65 mg/kg p.o., once per 2 days for 10 days; tumor weight. As to the method: In vivo antitumor activity against Colon 26 murine colon cancer cell
Colon 26 murine cancer cells were injected into Balb/C mouse intradermally and grown in mouse abdominal skin to a solid tumor. The Colon 26 tumors were periodically excised from the mouse, digested with an enzyme mixture containing collagenase and DNase, and then intradermally reinjected into mouse for subculture.
The cells were washed, resuspended in saline (5×10^6 cells/ml) and inoculated (5×10^5 cells/0.1 ml) intradermally to abdominal part of Balb/C mouse of which hair was removed in advance. Each test compound was dissolved in a solvent mixture of 60% propylene glycol(PG), 40% cremophor RH60(CP), and distilled water(DW) in the volume ratio of 30:20:50. When the size of tumor reached at appropriate level, the test compound was administered orally into the mouse which was implanted with colon 26 tumor cells in the frequency of once per 2 days for 10 days. The vehicle was also administered into the mouse of control group. The major and minor axis of tumor in each group were regularly measured by vernier calipers to estimate the increase of the tumor volume. Tumor volume was calculated on the basis of the following formula
Tumor volume(mm^3)=(1/2)×[length of major axis(mm)]×[length
When the tumor volume of the control group reached at about 1500 mm^3, the test animals were sacrificed by cervical dislocation and tumor was carefully excised and weighed. The inhibition rate of tumor growth (%) of each test compound was calculated as follows: […]
group.div.Tumor weight of control group)]

The test system of data set [8] is solid tumors and human tumor xenogafts. As to conditions: J. Med. Chem., 1990, 33, 2393; cited from earlier work.
The conditions of data set [9]: literature; cited from earlier work.
Data set [10] in a line: Acute toxicity test (LD50). The data set is classed as in vivo. The following applies: in vivo, po; gastric lavage, male Wistar rat; probit method; 95% confidence interval in parenthesis on the next line. As to the method: (§1) Acute toxicity test (LD50)
(§2) Male Wistar Rat (Charles River Japan, ca, 6 weeks old) was used as test animal and sodium-carboxymethylcellulose (Na-CMC, Sigma Chemical, U.S.A.) was used as a vehicle control. Compounds 57 and 65 were suspended in 0.5% Na-CMC, respectively, before dosing. Test compounds were administered by gastric lavage with the dosage of 400, 550, 700, 850 and ^1000 mg/kg. Control group was treated only with 0.5% Na-CMC. Each group was consisted of 5 rats.

The test system of a further data set is Male Wistar Rat. The data set can be described thus: Acute toxicity test (LD50). Format: in vivo. The following applies: gastric lavage. As to the method:
as §1, §2

Setting [11] is: COLO 205, Table 5, 48 hrs, read-out: IC50 (Colo205).

In brackets after ≈: the same amount, converted by molar mass. Entries after “also recorded” stand apart in the source; their conditions may differ. Where a name gives a salt, the structure may show the parent alone. Read-outs that look alike come from different tables or passages of the source.

Turning to `CC1Cc2cc(S(=O)(=O)n3cc(-c4ccccc4)[nH]c3=O)ccc2N1C(=O)c1ccc(N)cc1` (stereo not drawn) [Example 12, 4-phenyl-1-[N-(4-aminobenzoyl)-2-methylindoline-5-sulfonyl]-2-imidazolone.HCl], the IC50 in [1] (COLO 205, Table 1, 48 hrs, read-out: IC50 (Colo205)) amounted to 0.861 µg/mL; in data set [2], 0.072 µg/mL; in [3] (Table 1), 0.321 µg/mL; in data set [4] (SK-OV-3, Table 1, 48 hrs), 0.509 µg/mL. In addition, the “T/C rate (%)” value in [5] (65 mg/kg p.o.) stood at 115.4%.

For the compound `Nc1ccc(C(=O)N2CCc3cc(S(=O)(=O)N4C[C@H](c5ccccc5)NC4=O)ccc32)cc1` [Example 65, (S)-(+)-4-phenyl-1-[N-(4-aminobenzoyl)indoline-5-sulfonyl]-4,5-dihydro-2-imidazolone.HCl], the IC50 stood at 0.268 µg/mL in data set [1] (setting [11]); 0.105 µg/mL in data set [3] (Table 5); 0.829 µg/mL in data set [6] (Table 5, read-out: IC50 (K562)); 0.062 µg/mL in data set [4] (SK-OV-3, Table 5, 48 hrs). Moreover, in data set [5] (65 mg/kg p.o.), the “T/C rate (%)” value was 138.5%. Also, the “Inhibition rate of tumor growth (%)” value in data set [7] was determined as 69.2%.

Turning to `Cl.NC(Cc1ccccc1)C(=O)Nc1ccc(C(=O)N2CCc3cc(S(=O)(=O)N4C[C@H](c5ccccc5)NC4=O)ccc32)cc1` (stereo partly drawn) [Example 68, (S)-(-)-4-phenyl-1-[N-{4-(2-amino-3-phenyl-propanoyl)aminobenzoyl}indoline-5-sulfonyl]-4,5-dihydro-2-imidazolone.HCl], the “IC50 (Colo205)” value in data set [1] (Table 5, 48 hrs) was 0.598 µg/mL. Moreover, the “IC50 (A549)” value in data set [3] (Table 5, 48 hrs) is 0.083 µg/mL. Also, in data set [6] (Table 5, 48 hrs), the “IC50 (K562)” value came to 0.561 µg/mL. Also, in data set [4] (Table 5, 48 hrs), the “IC50 (SK-OV-3)” value came out at 0.137 µg/mL. Besides, in data set [7], the “Inhibition rate of tumor growth (%)” value is 45.3%.

For `O=C(Nc1ccc(Cl)cc1)NS(=O)(=O)c1ccc2c(c1)CCC2` [Sulofenur, reference compound], the antitumor activity entry in data set [8] was “exhibits potent antitumor activity upon solid tumors; also recorded: exceptionally broad spectrum of activity upon solid tumors and human tumor xenogafts”. The half-inhibitory concentration (IC50) was determined as 48.9 µg/mL (≈ 139 µM) in data set [1] (COLO 205, Table 3, 48 hrs, read-out: IC50 (Col205)); 48.9 µg/mL (≈ 139 µM) in [1] (setting [11]); 12.8 µg/mL (≈ 36.4 µM) in [3] (Table 1); 12.8 µg/mL (≈ 36.4 µM) in data set [3] (Table 3); 12.8 µg/mL (≈ 36.4 µM) in data set [3] (Table 4); 12.8 µg/mL (≈ 36.4 µM) in data set [3] (Table 5). The IC50 in data set [6] (Table 3, read-out: IC50 (K562)) is 17.6 µg/mL (≈ 50.1 µM); in data set [6] (Table 4, read-out: IC50 (K562)), 17.6 µg/mL (≈ 50.1 µM); in data set [6] (Table 5, read-out: IC50 (K562)), 17.6 µg/mL (≈ 50.1 µM); in [4] (SK-OV-3, Table 5, 48 hrs), 78.2 µg/mL (≈ 223 µM). Also, the side effects entry in data set [9] is “does not produce serious side effects including myelosuppression, nausea, vomiting, alopecia, mucositis, and hepatotoxicity; also recorded: only shows minor side effects such as anemia or methemoglobinemia”.

For `Nc1ccc(C(=O)N2CCc3cc(S(=O)(=O)N4CC(c5ccccc5)NC4=O)ccc32)cc1` (stereo not drawn) [Example 57, 4-phenyl-1-[N-(4-aminobenzoyl)indoline-5-sulfonyl]-4,5-dihydro-2-imidazolone.HCl], the IC50 was found to be 0.09 µg/mL in data set [3] (Table 4); 0.203 µg/mL in [6] (Table 4, read-out: IC50 (K562)); 0.572 µg/mL in data set [4] (SK-OV-3, Table 4, 48 hrs). Further, the “T/C rate (%)” value in [5] (50 mg/kg p.o.) is 133.3%; in [5] (65 mg/kg p.o.), 146.0%; in data set [5] (100 mg/kg i.p.) it was 166.7%; in [5] (100 mg/kg p.o.) it was 175.0%. Moreover, in data set [7], the “Inhibition rate of tumor growth (%)” value was 67.4%. The 50% lethal dose (LD50) in data set [10] was 644 mg/kg. For the same compound, the “Acute toxicity, animals per group (dead/total)” value with Male Wistar Rat (400 mg/kg) was 0/5; with Male Wistar Rat (550 mg/kg), 1/5; in the data set on Male Wistar Rat (700 mg/kg), 3/5; in the data set with Male Wistar Rat (850 mg/kg), 5/5; in the data set with Male Wistar Rat (1000 mg/kg), 5/5.
